# Where “and” joins values, the source holds several entries; their conditions need not be identical. Equal entries are not always repeated. Structures can show the parent of a compound that is named as a salt. Where two headings read alike, the source gives them in different places.
# Columns and labels:
# [1] = Log P study, octanol-1 / phosphate buffer
# Protocol: To 1 mL of this solution, 1 mL of octanol-1 (B) saturated with 0.02 M phosphate buffer solution (A) was added. The resultant mixture was shaken and centrifuged; three samples from each phase was collected and analyzed by HPLC, as shown in Table 10.
# The solution was then saturated with octanol-1 (B). To 1 mL of this solution, 1 mL of octanol-1 (B) saturated with 0.02 M phosphate buffer solution (A) was added. The resultant mixture was shaken and centrifuged; three samples from each phase was collected and analyzed by HPLC, as shown in Table 11.
# [2] = format: physicochemical; conditions: octanol-1 (B) / MilliQ water pH 6.5 (A′), Study 1 and Study 2, listed as L-dC-3′,5′-divalinyl ester hydrochloride
# Protocol: (§1) To 1 mL of this solution, 1 mL of octanol-1 (B) saturated with MilliQ water (A′) was added.
# as §1
# [3] = Stability study in buffer at pH 7.4, 7.20, 4.5 and 1.2; format: physicochemical; conditions: no other compounds detected up to 48 hours
# [4] = format: in vivo, cynomolgus monkey (Macaca fascicularis)
# Excerpt: The drug was quantitated in plasma and urine with a liquid chromatography-mass spectrometry (LC-MS) technique.
# [5] = dival-L-dC 10 mg/kg oral
# Excerpt: The drug was quantitated in plasma and in urine using HPLC analysis.
# [6] = In vitro stability of dival-L-dC in human plasma; format: in vitro ADME; conditions: 37° C.
# Excerpt: Two additional metabolites (β-L-2′-deoxycytidine-5′-valine ester and β-L-2′-deoxycytidine-valine ester) were also noted.
# [7] = system: human plasma proteins; format: in vitro ADME; conditions: ex vivo, ultrafiltration
# [8] = Bioavailability of the prodrugs of L-dC; conditions: oral administration to monkeys
# [9] = Solubility study in water (HPLC calibration); conditions: listed as 3′,5′-divalinyl ester hydrochloride of β-L-dC, hydrochloride
# [10] = during the log P experiment in phosphate buffer
structure (smiles),measurement,setting,value
"CC(C)[C@H](N)C(=O)OC[C@@H]1O[C@H](n2ccc(N)nc2=O)C[C@H]1OC(=O)[C@@H](N)C(C)C [3′5′-dival-L-dC, 3,5′-L-Valine ester of 2′-deoxy-β-L-cytidine hydrochloride]",conversion of the divaline ester detected in the aqueous phase,[1]; [10],50%
same,conversion of the divaline ester detected in the organic phase,[1]; [10],14%
same,log P (octanol/water),[1]; octanol-1 / 0.02 M phosphate buffer pH 7.2,−0.86
same,P′ (B/A′),[2],1.80 × 10^−3 and 1.77 × 10^−3
same,stability in words,[3],fully stable
same,Cmax of val-L-dC (unchanged prodrug),[4]; Oral (10 mg/kg dival-L-dC),Not detected
same,L-dC as share of drug excreted in the urine,[4]; dival-L-dC 10 mg/kg IV,~93%
same,administered dose excreted in urine within 2 hours,[4]; dival-L-dC 10 mg/kg IV,58±3%
same,"renal excretion of L-dU, share of total recovered dose",[4]; dival-L-dC 10 mg/kg IV,approximately 2.5%
same,"renal excretion of β-L-2′-deoxycytidine-5′-valine ester, share of total recovered dose",[4]; dival-L-dC 10 mg/kg IV,~3.7%
same,β-L-2′-deoxycytidine-5′-valine ester in plasma at 15 minutes,[4]; dival-L-dC 10 mg/kg IV,3.23 µM
same,β-L-2′-deoxycytidine-5′-valine ester in plasma by 2 hours,[4]; dival-L-dC 10 mg/kg IV,0.08 µM
same,dival-L-dC in plasma at 30 minutes,"[4]; dival-L-dC 10 mg/kg IV, 1 of 3 animals",0.36 µM
same,"dival-L-dC in urine, share of the recovered dose","[4]; dival-L-dC 10 mg/kg IV, one of three animals at 2 hours",approximately 0.15%
same,L-dC as share of drug excreted in the urine,[4]; dival-L-dC 10 mg/kg oral,~95%
same,L-dC as share of plasma drug levels at Cmax,[4]; dival-L-dC 10 mg/kg oral,> 99%
same,administered oral dose recovered in urine after 72 hours,[4]; dival-L-dC 10 mg/kg oral,39±8%
same,administered oral dose recovered in urine within 4 hours,[4]; dival-L-dC 10 mg/kg oral,~31±8%
same,"renal excretion of L-dU, share of total recovered dose",[4]; dival-L-dC 10 mg/kg oral,approximately 2.5%
same,"renal excretion of β-L-2′-deoxycytidine-5′-valine ester, share of total recovered dose",[4]; dival-L-dC 10 mg/kg oral,~0.2%
same,L-dU concentration in plasma at 8 hours,"[4]; dival-L-dC 10 mg/kg oral, one animal",0.39 µM
same,L-dC as share of drug excreted in the urine,[5],~89%
same,administered oral dose recovered in urine after 72 hours,[5],31%
same,administered oral dose recovered in urine within 8 hours,[5],Approximately 26%
same,"renal excretion of L-dU, share of the recovered dose",[5],approximately 10%
same,dival-L-dC in plasma at 15 minutes post-dose,[5]; detected in only one animal,0.35 µM
same,in vitro half-life in human plasma,[6],approximately 39 min
same,binding to human plasma proteins,[7],13.3%
same,share of absorbed ester converted to L-dC,[8],more than 99%
same,share of the oral dose absorbed,[8],approximately 73%
same,Solubility (mol/L),[9],more than 2.5 mol/L

# Reference: US8158606B2, “β-L-2′-deoxynucleosides for the treatment of resistant HBV strains and combination therapies” (priority 2002, dated 2012)
